Patent US20260126455A1, “Methods and Dosing Regimens for Preventing or Delaying Onset of Alzheimer's Disease and Other Forms of Dementia and Mild Cognitive Impairment” (priority 2020, published 2026)
Several values for one entry are separate records, joined by “and”; a condition that tells them apart may be missing. Identical values can stand only once. Like-named read-outs stand apart in the source and are kept apart here.

How the values were obtained:
SK-N-MC neurons [1] = assay: Abeta42 immunocytochemistry: intracellular Abeta42 labeling in SK-N-MC cells exposed to Abeta42 plus A7R compounds; type: cell-based, human
SK-N-MC neurons [2] = assay: Morphological scoring of SK-N-MC cells exposed to Abeta42 plus A7R compounds; type: cell-based, human
[3] = tested on: A7R-transfected SK-N-MC human neuroblastoma cells; conditions: cited from earlier work; for Intracellular accumulation of the peptide: 100 nanomolar
[4] = over 20 epidemiological clinical trials; cited from earlier work
ischemic brain = conditions: rat, in vivo; cited from earlier work
[5] = tested on: lipoprotein-associated phospholipase-A2; conditions: in vivo; cited from earlier work
[6] = human, in vivo; cited from earlier work
beta-secretase = target: T1, beta-secretase (Homo sapiens, UniProt P56817); conditions: in vivo; cited from earlier work
T1 construct: from tissue; host or cells: clinical-trial subjects (in vivo)
T1 sequence (P56817 46-501): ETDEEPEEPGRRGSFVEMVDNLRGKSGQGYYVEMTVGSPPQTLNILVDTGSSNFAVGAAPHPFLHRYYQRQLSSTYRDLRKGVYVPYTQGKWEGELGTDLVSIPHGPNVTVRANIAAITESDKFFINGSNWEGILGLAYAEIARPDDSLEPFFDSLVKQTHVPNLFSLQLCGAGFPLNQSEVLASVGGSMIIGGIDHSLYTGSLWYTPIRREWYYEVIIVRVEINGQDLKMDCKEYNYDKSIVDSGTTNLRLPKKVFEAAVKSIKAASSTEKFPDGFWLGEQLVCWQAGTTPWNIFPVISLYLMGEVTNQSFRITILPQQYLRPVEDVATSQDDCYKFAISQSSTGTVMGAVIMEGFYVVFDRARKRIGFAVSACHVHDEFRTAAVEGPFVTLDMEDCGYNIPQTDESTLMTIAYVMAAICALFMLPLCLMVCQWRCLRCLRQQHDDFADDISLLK

C57BL/6J mice = assay: CognitionWall discrimination learning test, 2-week study; type: in vivo
Protocol: This 2-week study was comprised of 2 groups of C57BL/6J mice as outlined in Table 5. Mice were infused with 100 μl pertussis toxin (3.0×10−3 μg/μl in saline) or 100 μl saline into the tail vein according to Table 5 to affect the BBB. Subsequently, Abeta42 (100 μl of 6.9 μM in saline) was infused into the tail vein. Groups 1 and 2 received 2 cycles of Abeta42 treatment.
Deficits in learning behavior correlated with degenerating neurons in mice treated with pertussis toxin and Abeta42 as compared with untreated mice in the 2-week study. The CognitionWall discrimination learning test was used to test learning behaviors in the mice. Fifteen minutes before the start of the discrimination learning (DL) and reversal learning (RL) task at 16.30 h on the 3th light phase in the Phenotyper, the CognitionWall was placed in front of the reward dispenser spout. After placement, several free rewards were dispensed and standard chow was removed from the feeding station. Mice had to learn to earn their food (Dustless Precision Pellets, 14 mg) by going through the left hole in the wall for the next 2 days (DL1 and DL2). The middle and right hole were deemed incorrect holes and passing through these holes was without any consequences. During the subsequent 2 days, the rewarded hole was switched to the right hole (reversal learning; RL1 and RL2). During DL and RL, one reward was delivered for every fifth entry through the correct hole (FR5 schedule of reinforcement). Mice were not required to make 5 consecutive correct entries (i.e., no chaining requirement). […] Online display of the number of earned rewards was used to evaluate food intake during the experiment. Based on pilot experiments to quantify the number of food rewards required to maintain body weight, mice were fed extra reward pellets when they earn fewer than 100 rewards per day for 2 or more consecutive days. […]

A7R [7] = target: A7R (Rattus norvegicus, UniProt Q05941); conditions: rat receptors; read-out: Ki, binding to A7R; cited from earlier work
Sequence of A7R (Rattus norvegicus, UniProt Q05941) (Q05941 23-502): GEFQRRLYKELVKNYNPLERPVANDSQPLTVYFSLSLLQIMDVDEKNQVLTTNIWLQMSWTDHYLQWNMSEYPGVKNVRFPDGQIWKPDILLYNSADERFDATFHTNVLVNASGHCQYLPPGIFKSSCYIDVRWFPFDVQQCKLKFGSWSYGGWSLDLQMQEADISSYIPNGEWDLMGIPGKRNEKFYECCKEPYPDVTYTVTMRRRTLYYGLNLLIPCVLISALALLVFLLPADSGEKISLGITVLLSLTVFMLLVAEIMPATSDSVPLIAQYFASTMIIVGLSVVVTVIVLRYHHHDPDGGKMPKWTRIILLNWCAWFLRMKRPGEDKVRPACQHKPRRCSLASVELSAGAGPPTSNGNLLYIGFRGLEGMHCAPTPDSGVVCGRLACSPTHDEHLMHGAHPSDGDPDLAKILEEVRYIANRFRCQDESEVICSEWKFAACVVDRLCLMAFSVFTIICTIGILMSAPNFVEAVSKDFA

[8] = tested on: Human neuroblastoma SK-N-MC cells, transfected with A7R; conditions: 100 nanomolar for 6 hours; cited from earlier work
A7R [9] = conditions: guinea pig receptors; read-out: Ki, binding to A7R; cited from earlier work
5HT6 receptor = 5HT6 receptor (Homo sapiens, UniProt P50406); conditions: in vivo; cited from earlier work
Sequence of 5HT6 receptor (P50406 whole entry): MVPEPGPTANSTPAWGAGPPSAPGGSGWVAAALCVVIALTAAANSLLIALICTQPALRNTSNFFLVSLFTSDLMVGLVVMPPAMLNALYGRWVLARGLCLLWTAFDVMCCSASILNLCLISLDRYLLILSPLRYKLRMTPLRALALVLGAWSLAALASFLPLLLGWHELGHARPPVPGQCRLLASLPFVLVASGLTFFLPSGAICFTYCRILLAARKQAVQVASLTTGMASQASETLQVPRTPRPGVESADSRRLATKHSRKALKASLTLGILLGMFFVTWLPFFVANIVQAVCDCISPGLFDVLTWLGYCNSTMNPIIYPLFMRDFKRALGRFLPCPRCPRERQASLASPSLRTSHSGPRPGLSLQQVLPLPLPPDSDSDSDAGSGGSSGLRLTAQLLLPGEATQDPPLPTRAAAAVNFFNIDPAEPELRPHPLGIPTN

amyloid = conditions: Alzheimer's disease subjects; Solanezumab: Phase 3, mild Alzheimer's disease; cited from earlier work
Sequence of amyloid (P05067 672-711): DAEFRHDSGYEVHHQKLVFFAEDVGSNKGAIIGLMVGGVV

Alpha-bungarotoxin
Abeta42 immunolabeling scores 1 hr (SK-N-MC neurons [1]): 0/1
Abeta42 immunolabeling scores 2 hr (SK-N-MC neurons [1]): 1/0
Abeta42 immunolabeling scores 4 hr (SK-N-MC neurons [1]): 1/0
Morphologic scores 6 hr (SK-N-MC neurons [2]): 2.5
Inhibition of Abeta42 accumulation in transfected cells [3]: inhibited Abeta42 accumulation

CC(C)Cc1ccc(C(C)C(=O)O)cc1 (stereo not drawn) [Ibuprofen]
Risk of Alzheimer's disease [4]: reduce the risk of Alzheimer's disease

VEGF
Angiogenesis in the ischemic brain (ischemic brain): enhanced angiogenesis
Neurological recovery (ischemic brain): improved neurological recovery

CCN(CC)CCN(Cc1ccc(-c2ccc(C(F)(F)F)cc2)cc1)C(=O)Cn1c(SCc2ccc(F)cc2)nc(=O)c2c1CCC2 [Darapladib]
BBB leakage [5]: reducing BBB leakage
Progression of atherosclerosis [5]: blocked the progression of atherosclerosis

CC(C)c1c(C(=O)Nc2ccccc2)c(-c2ccccc2)c(-c2ccc(F)cc2)n1CC[C@@H](O)C[C@@H](O)CC(=O)O [Atorvastatin]
Cognitive measures [6]: did not improve cognitive measures

c1cnc2cc3c(cc2n1)[C@@H]1CNC[C@H]3C1 [Varenicline]
Protection of cells from Abeta42 toxicity (observed morphology) (SK-N-MC neurons [2]; cells treated with compound and Abeta42, similar at the other time points): protected from Abeta42 toxicity

Abeta40
Intracellular accumulation of the peptide ([3]; 3 hours): little detectable accumulation

CN1CCCC1c1cccnc1 (stereo not drawn) [Nicotine]
Abeta42 immunolabeling scores 2 hr (SK-N-MC neurons [1]): 1.7
Abeta42 immunolabeling scores 6 hr (SK-N-MC neurons [1]): 0.3
Morphologic scores 2 hr (SK-N-MC neurons [2]): 2.7
Morphologic scores 4 hr (SK-N-MC neurons [2]): 2.8
Morphologic scores 6 hr (SK-N-MC neurons [2]): 2.8

NC1=N[C@@]2(c3cc(NC(=O)c4ccc(F)cn4)ccc3F)COC[C@H]2CS1 [LY2886721]
Reason for stopping the clinical studies (beta-secretase): toxicity

Abeta42
Learning performance in words (C57BL/6J mice; 2-week pilot study, 6 mice per group): did not impact learning impairment
Entries to reach the learning criterion, group value (C57BL/6J mice; 2 NA scores estimated as ~500): ~230 entries
Entries (entries to 80% correct learning criterion) (C57BL/6J mice; individual mouse, 2-week study, NA = too impaired to test, T1, T2 second Abeta42 dose most likely subcutaneous): 307 and 130 and 180 and 264 and 134 and 370
Ki (A7R [7]): 4.1 pM
Cell death [8]: cell death
Intracellular accumulation of the peptide ([3]; 3 hours): prominent, irregularly shaped Abeta42-positive deposits
Intracellular accumulation of the peptide ([3]; within 30 minutes): some accumulation of Abeta42-positive material
Ki (A7R [9]): 5 pM

COc1ccc2c(c1)c(CC(=O)O)c(C)n2C(=O)c1ccc(Cl)cc1 [Indomethacin]
Risk of Alzheimer's disease [4]: reduce the risk of Alzheimer's disease

O=S(=O)(c1ccccc1)c1cnc2c(N3CCNCC3)cccc2c1 [Intepirdine]
Goals of a pivotal trial (5HT6 receptor): failed to meet the goals of a pivotal trial

Solanezumab: yet another anti-amyloid antibody
Clinical trial efficacy end points (amyloid): failed to reach statistical significance
